In ChEMBL document CHEMBL1138676, “Liver-selective glucocorticoid antagonists: a novel treatment for type 2 diabetes” (J Med Chem, 2004):

What was measured:
[1] = target: T1, Estrogen receptor (Homo sapiens, UniProt P03372); assay: Inhibition of human Estrogen receptor alpha
T1 sequence (P03372 whole entry): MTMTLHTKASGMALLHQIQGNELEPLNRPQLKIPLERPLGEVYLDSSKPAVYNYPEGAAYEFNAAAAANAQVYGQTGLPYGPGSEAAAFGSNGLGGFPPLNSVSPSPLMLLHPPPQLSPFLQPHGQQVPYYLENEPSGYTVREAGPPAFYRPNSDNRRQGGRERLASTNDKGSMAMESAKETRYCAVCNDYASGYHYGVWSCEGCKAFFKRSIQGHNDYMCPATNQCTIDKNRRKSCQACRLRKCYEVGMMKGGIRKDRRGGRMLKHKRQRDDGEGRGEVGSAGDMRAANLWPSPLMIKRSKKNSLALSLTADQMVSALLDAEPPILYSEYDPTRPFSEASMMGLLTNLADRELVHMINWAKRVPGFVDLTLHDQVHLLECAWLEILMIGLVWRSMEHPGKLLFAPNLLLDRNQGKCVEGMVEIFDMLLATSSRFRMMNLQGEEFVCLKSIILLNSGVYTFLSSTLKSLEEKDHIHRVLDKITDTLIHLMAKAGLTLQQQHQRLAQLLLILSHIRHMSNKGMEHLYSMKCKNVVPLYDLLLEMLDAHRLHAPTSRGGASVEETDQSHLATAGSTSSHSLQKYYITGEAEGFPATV

[2] = target: Estrogen receptor beta (Homo sapiens, UniProt Q92731); assay: Inhibition of human Estrogen receptor beta
Estrogen receptor beta, sequence (Q92731 whole entry): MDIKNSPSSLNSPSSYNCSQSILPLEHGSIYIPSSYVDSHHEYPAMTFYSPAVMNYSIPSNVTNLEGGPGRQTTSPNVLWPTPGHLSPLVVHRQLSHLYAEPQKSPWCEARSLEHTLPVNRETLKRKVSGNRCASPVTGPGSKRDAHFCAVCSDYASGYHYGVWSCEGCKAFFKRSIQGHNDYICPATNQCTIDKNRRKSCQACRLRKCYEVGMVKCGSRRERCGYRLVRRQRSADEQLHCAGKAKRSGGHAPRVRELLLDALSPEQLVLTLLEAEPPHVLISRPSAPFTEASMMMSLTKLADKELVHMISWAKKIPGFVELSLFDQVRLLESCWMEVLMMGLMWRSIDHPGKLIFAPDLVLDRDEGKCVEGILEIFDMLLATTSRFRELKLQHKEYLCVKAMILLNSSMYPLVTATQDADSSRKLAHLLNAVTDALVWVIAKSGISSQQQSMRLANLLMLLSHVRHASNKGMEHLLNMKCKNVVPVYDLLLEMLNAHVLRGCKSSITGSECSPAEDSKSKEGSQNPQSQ

[3] = target: T2, Androgen receptor (Homo sapiens, UniProt P10275)
T2 sequence (P10275 whole entry): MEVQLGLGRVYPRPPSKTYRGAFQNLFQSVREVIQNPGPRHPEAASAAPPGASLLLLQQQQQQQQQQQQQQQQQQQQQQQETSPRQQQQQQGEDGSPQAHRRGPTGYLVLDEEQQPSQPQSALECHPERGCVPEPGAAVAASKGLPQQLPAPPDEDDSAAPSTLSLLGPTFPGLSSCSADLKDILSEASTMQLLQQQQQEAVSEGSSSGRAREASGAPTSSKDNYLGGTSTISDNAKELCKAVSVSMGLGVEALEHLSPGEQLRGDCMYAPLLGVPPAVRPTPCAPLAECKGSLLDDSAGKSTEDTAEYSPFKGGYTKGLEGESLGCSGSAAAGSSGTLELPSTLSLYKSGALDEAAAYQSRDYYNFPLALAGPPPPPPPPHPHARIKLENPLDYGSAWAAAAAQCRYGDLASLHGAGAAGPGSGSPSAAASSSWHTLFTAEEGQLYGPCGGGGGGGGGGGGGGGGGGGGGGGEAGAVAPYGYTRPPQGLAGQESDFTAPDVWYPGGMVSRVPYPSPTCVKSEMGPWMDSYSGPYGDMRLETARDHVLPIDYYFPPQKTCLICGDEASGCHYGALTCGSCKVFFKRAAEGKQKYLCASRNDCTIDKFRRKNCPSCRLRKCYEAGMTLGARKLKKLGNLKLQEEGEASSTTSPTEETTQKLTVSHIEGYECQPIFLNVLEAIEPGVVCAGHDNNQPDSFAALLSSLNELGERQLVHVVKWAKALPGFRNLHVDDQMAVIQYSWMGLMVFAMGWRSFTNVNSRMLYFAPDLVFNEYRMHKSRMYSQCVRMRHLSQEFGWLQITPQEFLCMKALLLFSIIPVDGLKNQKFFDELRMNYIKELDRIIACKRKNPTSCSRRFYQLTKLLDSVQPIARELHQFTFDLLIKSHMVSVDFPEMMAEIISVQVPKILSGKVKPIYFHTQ
Description: Inhibition of human androgen receptor

[4] = target: T3, Mineralocorticoid receptor (Homo sapiens, UniProt P08235)
T3 sequence (P08235 whole entry): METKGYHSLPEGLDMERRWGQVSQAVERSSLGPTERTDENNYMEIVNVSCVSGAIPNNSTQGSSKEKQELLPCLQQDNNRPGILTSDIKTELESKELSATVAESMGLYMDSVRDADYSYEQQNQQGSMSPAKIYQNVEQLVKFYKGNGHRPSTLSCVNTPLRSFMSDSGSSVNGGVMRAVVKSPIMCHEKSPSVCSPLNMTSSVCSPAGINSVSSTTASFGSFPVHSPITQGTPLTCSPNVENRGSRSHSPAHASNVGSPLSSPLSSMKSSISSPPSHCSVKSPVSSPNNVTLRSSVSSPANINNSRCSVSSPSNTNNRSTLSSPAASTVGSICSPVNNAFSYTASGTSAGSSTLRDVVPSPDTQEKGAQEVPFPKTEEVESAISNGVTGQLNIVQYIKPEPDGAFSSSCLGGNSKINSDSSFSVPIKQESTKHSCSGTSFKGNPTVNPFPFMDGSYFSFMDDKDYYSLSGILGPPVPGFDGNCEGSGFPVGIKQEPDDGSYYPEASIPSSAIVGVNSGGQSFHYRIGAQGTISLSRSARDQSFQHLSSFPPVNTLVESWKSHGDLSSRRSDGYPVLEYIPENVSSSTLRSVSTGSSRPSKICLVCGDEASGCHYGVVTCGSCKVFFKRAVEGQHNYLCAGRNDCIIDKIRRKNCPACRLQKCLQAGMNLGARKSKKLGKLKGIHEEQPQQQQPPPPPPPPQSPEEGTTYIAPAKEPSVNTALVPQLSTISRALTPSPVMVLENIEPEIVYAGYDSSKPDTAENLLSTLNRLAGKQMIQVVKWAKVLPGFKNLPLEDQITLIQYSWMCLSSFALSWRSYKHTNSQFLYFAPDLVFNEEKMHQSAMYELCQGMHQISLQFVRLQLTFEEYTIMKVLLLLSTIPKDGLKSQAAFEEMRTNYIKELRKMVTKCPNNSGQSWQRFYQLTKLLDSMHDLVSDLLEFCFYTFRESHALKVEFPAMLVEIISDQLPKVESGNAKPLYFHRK
Description: Inhibition of human Mineralocorticoid receptor

[5] = target: T4, Thyroid hormone receptor beta (Homo sapiens, UniProt P10828); assay: Inhibition of human Thyroid hormone receptor beta
T4 sequence (P10828 whole entry): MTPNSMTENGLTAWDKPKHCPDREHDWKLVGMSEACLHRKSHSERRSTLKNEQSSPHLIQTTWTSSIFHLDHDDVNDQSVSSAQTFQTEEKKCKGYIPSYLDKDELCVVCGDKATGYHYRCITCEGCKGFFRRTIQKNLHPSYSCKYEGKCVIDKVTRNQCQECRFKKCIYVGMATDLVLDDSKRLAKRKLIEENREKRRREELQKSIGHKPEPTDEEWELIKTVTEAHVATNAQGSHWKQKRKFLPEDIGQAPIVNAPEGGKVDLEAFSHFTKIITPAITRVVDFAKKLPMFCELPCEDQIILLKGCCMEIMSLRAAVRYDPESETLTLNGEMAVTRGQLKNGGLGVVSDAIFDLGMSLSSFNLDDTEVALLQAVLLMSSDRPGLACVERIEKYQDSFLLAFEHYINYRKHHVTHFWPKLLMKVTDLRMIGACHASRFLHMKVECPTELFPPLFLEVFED

[6] = Inhibitory activity against rat lymphocytes; design: concentration or dose not given beside the values

| Ki [1] [µM] | Ki [2] [µM] | Ki [3] [µM] | Ki [4] [µM] | Ki [5] [µM] | Structure (SMILES) | Inhibition [6] [%] |
| --- | --- | --- | --- | --- | --- | --- |
| 0.012 | 0.11 | 0.0081 | 0.44 | 1.5 | C#C[C@]1(O)CC[C@H]2[C@@H]3CCC4=CC(=O)CCC4=C3[C@@H](c3ccc(N(C)CCOC4CC[C@@]5(C)[C@@H](C4)C[C@@H](O)[C@@H]4[C@@H]5C[C@H](O)[C@]5(C)[C@@H]([C@H](C)CCC(=O)O)CC[C@@H]45)cc3)C[C@@]21C (stereo in doubt; form 2) | 9 |
| 0.0088 | 0.013 | 0.0046 | 0.08 | 1.9 | C#C[C@]1(O)CC[C@H]2[C@@H]3CCC4=CC(=O)CCC4=C3[C@@H](c3ccc(N(C)CCCOC4CC[C@@]5(C)[C@@H](C4)C[C@@H](O)[C@@H]4[C@@H]5C[C@H](O)[C@]5(C)[C@@H]([C@H](C)CCC(=O)O)CC[C@@H]45)cc3)C[C@@]21C (some centres not stated) | -5 |
